Results reported in patent US8293756B2, “Pharmaceutical compositions comprising nilotinib hydrochloride monohydrate” (Novartis AG, priority 2006, dated 2012).
Counter-ions that a name gives are not always drawn.

Assays:
[1] = Solubility in aqueous media / water; format: physicochemical
[2] = Hygroscopic tendency; format: physicochemical

water solubility ([1]; water, background statement)	solubility in aqueous media ([1]; aqueous media)	hygroscopic tendency [2]	SMILES
poorly water soluble	–	–	Cc1cn(-c2cc(NC(=O)c3ccc(C)c(Nc4nccc(-c5cccnc5)n4)c3)cc(C(F)(F)F)c2)cn1 [Nilotinib, 4-Methyl-3-[[4-(3-pyridinyl)-2-pyrimidinyl]amino]-N-[5-(4-methyl-1H-imidazol-1-yl) -3-(trifluoromethyl)phenyl] benzamide]
–	low solubility	slight hygroscopic tendency	Cc1cn(-c2cc(NC(=O)c3ccc(C)c(Nc4nccc(-c5cccnc5)n4)c3)cc(C(F)(F)F)c2)cn1 [nilotinib hydrochloride monohydrate, 4-Methyl-N-[3-(4-methyl-1H-imidazol-1-yl) -5-(trifluromethyl)phenyl]-3-[(4-pyridine-3-ylpyrimidin-2-yl)amino]benzamide hydrochloride hydrate]
